What was measured:
[1] = tested on: hypoxia-exposed mice; assay: Acute hemodynamic effects of benzbromarone in hypoxia-exposed mice; type: in vivo, mouse; details: single i.v. bolus of 300 μM
From the text: The experimental protocol is depicted in FIG. 12A. Male C57BL/6J mice (Charles River) at the age of 10 weeks were either placed into a hypoxic chamber (FiO2=0.1, n=16) for 4 weeks, or kept at normoxic conditions (control group, FiO2=0.21, n=8). According to the reports of Fagan et al. (Fagan, K A, et al. Am. J. Physiol. Lung Cell. Mol. Physiol. (2004) 287, L656-664) and Tuscherer et al. (Tuchscherer, H A, et al., J. Biomech. (2007) 40, 993-1001), a significant increase in the right ventricular systolic pressure (RVSP) and PA muscularization can be observed already after 14 days of hypoxia exposure. Therefore, mice subjected to hypoxia were randomized into two groups at the end of the second week. […]
In mice, in vivo hemodynamics was performed under constant inhalation of 2% isoflurane/oxygen, using the closed chest technique through a small incision on the submandibular area. Body temperature was monitored and maintained at 37±1° C. A limb-lead ECG was recorded and the heart rate was kept constant to avoid changes in the sympathetic tone during the experiment. The right ventricle (RV) was catheterized via the right jugular vein using a 1.4 F Millar catheter (SPR-671, Millar, Houston Tex., USA) and right ventricular systolic pressure (RVSP) was measured continuously. […]

[2] = Solubility (comparative remark); type: physicochemical
[3] = tested on: patients with severe IPAH; assay: Hemodynamic effect of a single oral dose of benzbromarone in IPAH patients; type: in vivo, human; details: 200 mg orally
Procedure: All patients provided a written informed consent to participate in the study. Examinations were performed by the same experienced team. For the right heart catheterizations, a 7F quadriple-lumen, balloon-tipped, flow-directed Swan-Ganz catheter (Baxter, Deerfield, Ill.) was introduced using the transjugular approach. Hemodynamic measurements included systolic, diastolic and mean pulmonary arterial pressure, pulmonary arterial wedge pressure, right atrial pressure, and cardiac output measured by the thermodilution technique and calculated using an analog computer system. Pulmonary vascular resistance was derived from the difference of mean pulmonary arterial pressure and pulmonary arterial wedge pressure divided by cardiac output. Cardiac index was determined as the ratio of cardiac output to body surface area. All measurements were performed in the supine position, pressure values were continuously recorded and averaged over several respiratory cycles during spontaneous breathing. […] Partial pressure of oxygen and oxygen saturation of arterialized ear lobe capillary blood and pulmonary arterial blood were determined with an ABL 800 Flex (Radiometer; Copenhagen, Denmark) blood gas analyzer. Systemic blood pressure was measured by a sphygmomanometer.

[4] = after 120 min, 10 patients, no placebo group

With `CCc1oc2ccccc2c1C(=O)c1cc(Br)c(O)c(Br)c1` [benzbromarone, (2-Ethyl-3-benzofuranyl)-(3,5-dibrom-4-hydroxyphenyl)ketone] the RVSP ([1]; mice exposed to 4 weeks of hypoxia) was “significant decrease”, the “RVSP in the control animals” value ([1]; normoxia control mice) was “without affecting” and the “solubility compared with T16Ainh-A01” value [2] was “better soluble”. For the same molecule, the “further changes in the pulmonary or systemic hemodynamics” value [3] was “no further changes”, the PVR [3, 4] was “slight increase” and the mPAP [3, 4] was “slight increase”. The clinical adverse effects ([3]; throughout the study) was “No clinical adverse effects”.

From patent US20210156844A1, “TMEM16A Modulation for Diagnostic or Therapeutic Use in Pulmonary Hypertension (PH)” (Bayer Aktiengesellschaft, priority 2017, published 2021)
